# Measurements taken from patent publication US9416151B2, “Use of glycyrrhetinic acid, glycyrrhizic acid and related compounds for prevention and/or treatment of pulmonary fibrosis” (priority 2010, dated 2016).
# Entries after “also recorded” stand apart in the source; their conditions may differ.
# Experiments:
# [1] = tested on: inflammatory mediators (IMs), including IL1a, TNFa, PF4 and VCAM-1; assay: Inflammatory mediators in lung homogenates by ELISA, acute phase of IR-induced pneumonitis; type: in vivo, C57BL/6 fibrosis-prone mice; details: 2.5 days after thoracic IR 15 Gy; treatment from 6 h after IR; vs vehicle, p<0.05
# Experimental: (§1) Briefly, C57BL/6 fibrosis-prone mice received a single-dose of thoracic IR at 15 Gy with a dose rate of 1.9 Gy/min. Six hours after IR exposure, the mice were divided into the following treatment groups: 1) normal (received 0 Gy; no treatment); 2) vehicle-treated; 3) GA-treated (30-40 mg/kg/q.o.d) (i.e. every other day) (the GA dosage used herein was derived from the effective dosage for humans (3-4 mg/kg), which is typically 6-10 times lower than that of mice); 4) dexamethasone-treated (Positive Control 1) (Dex, 3 mg/kg, i.m. or p.o. qod); 5) amifostine-treated (Positive Control 2) (Ami, 200 mg/kg/ i.v, 0.5 hr prior to irradiation); and 6) celebrex-treated (Positive Control 3) (30 mg/kg, po, qod).
# The mice were sacrificed 2.5 days after IR exposure, and fresh lung tissue homogenates were prepared using lysis buffer mixed with protenase inhibitor cocktails. After protein concentration was adjusted to 1 mg/ml, the fresh lung homogenates were added to ELISA plates at a concentration of 100 μl/well. The levels of inflammatory mediators were measured by ELISA.
# [2] = tested on: mice with IR-induced pneumonitis; assay: Lung morphology, plasma exudation and inflammatory cell infiltration, acute phase of IR-induced pneumonitis; type: in vivo, C57BL/6 fibrosis-prone mice; details: 2.5 days after thoracic IR 15 Gy
# Experimental: as §1
# Briefly, C57BL/6 fibrosis-prone mice received a single-dose of thoracic IR at 15 Gy with a dose rate of 1.9 Gy/min and were treated as described in Example 2. The mice were sacrificed 2.5 days after IR exposure, and lung tissues were harvested and analyzed for morphological changes.
# [3] = tested on: mice with IR-induced pulmonary fibrosis; assay: Lung density by cone beam CT scan (CBCT); type: in vivo; details: for lung density (abnormal increase): 7.5 months after IR 15 Gy, P<0.05
# Experimental: To assess effects of GA on lung density, cone beam CT scan (CBCT) of mouse lungs was performed. CBCT provides a complete 3D 650×650×428 scan (i.e. 428 slices) of the lungs with isotropic resolution at 270 μm (central slice shown in FIG. 11) in 30 seconds. The scanner achieves a CT density sensitivity of ˜[…], and thus, changes in lung density can be discerned. The CBCT imaging data were further analyzed using MATLAB software. The lungs were automatically segmented (FIG. 12A) and a 3D image was generated for each mouse lung (FIG. 12B). To reduce the effect of cardiac motion on the mean value of lung density, boundaries of the lungs were not used for analysis. A histogram of voxel intensity (pulmonary tissue density) of each mouse was created (FIG. 13).
# [4] = Toxicity of long-term use: activity, fur morphology, body weight; type: in vivo
# [5] = tested on: ACTH (adrenocorticotropic hormone); growth hormone (GH); details: in vivo
# Experimental: The chemical structure of GA is similar to that of cortisol. Thus, this Example investigates whether the long-term use of GA would affect the production of cortisol and cause side effects. The plasma levels of ACTH (adrenocorticotropic hormone), a […], were measured using ELISA at Weeks 6, 7, and 10 after GA-treatments (40 mg/kg, god, p.o).
# In addition, plasma levels of growth hormone (GH) were measured using ELISA at Weeks 6, 7, and 10 after GA treatments.
# pulmonary fibrosis = assay: Inventors' observation on dexamethasone in pulmonary fibrosis; type: in vivo; details: compared to non-treated controls
# SP-D and IL1a = assay: Plasma levels of SP-D and IL1a, acute phase of IR-induced pneumonitis; type: in vivo, C57BL/6 fibrosis-prone mice; details: 2.5 days after thoracic IR; P<0.05
# Experimental: as §1
# IR damages lung epithelium and endothelium cells, and causes dysfunction of tight junction, increased cellular permeability, and the loss of integrity of the alveolar-capillary barrier. As a result, SP-D and IL1a abnormally enter into the blood from inflamed pulmonary tissue, leading to elevated plasma levels of SP-D and IL1a.
# In this Example, C57BL/6 fibrosis-prone mice received a single-dose of thoracic IR at 15 Gy with a dose rate of 1.9 Gy/min and were treated as described in Example 2. The mice were sacrificed 2.5 days after IR exposure, and plasma levels of SP-D and IL1a were measured.
# [6] = tested on: mice with IR-induced pneumonitis; assay: Sub-acute phase of IR-induced pneumonitis: lung tissue and BALF assays; type: in vivo, C57BL/6 fibrosis-prone mice
# Experimental: as §1
# Briefly, C57BL/6 fibrosis-prone mice received a thoracic IR and were treated as described in Example 2. The mice were sacrificed 17 days after IR exposure, and lung tissues were harvested. Bronchoalveolar lavage fluid (BALF) assays were performed.
# [7] = tested on: IL1a, TNFa, lymphotactin and p-selectin; assay: Inflammatory mediators, sub-acute phase, GA administered 24 hours after IR exposure; type: in vivo, mice; details: GA given 24 hours after thoracic IR at 5, 10 and 15 Gy
# Experimental: The administration of GA 24 hours after IR exposure can effectively block the surge in inflammatory responses.
# [8] = tested on: mice with IR-induced pulmonary fibrosis; assay: Respiratory rate in IR-induced pulmonary fibrosis (ventilator with pressure plethysmograph); type: in vivo
# Experimental: Mice exposed to thoracic IR develops pulmonary fibrosis 6 months after IR exposure at 18 Gy, 8 months after IR exposure at 15 Gy, and 10 months after IR exposure at 12.5 Gy. To access the treatment effects of GA on lung fibrosis and lung function, the respiratory rate, lung density, and lung compliance of the mice were determined.
# To assess improvement on respiratory function, mice exposed to thoracic IR at 15 Gy were treated with GA (30-40 mg/kg) q.o.d. or twice/week for 3 months. Mouse respiratory rate was measured using a Harvard rodent ventilator connected to a pressure plethysmograph.
# [9] = tested on: mice with IR-induced pulmonary fibrosis; assay: Lung compliance (plethysmograph pressure-volume measurements); type: in vivo; details: 6.5 months after IR 15 Gy; P<0.05
# Experimental: To assess the effects of GA on lung compliance, mice were anesthetized and their trachea were surgically exposed and incised. An 18-gauge, 1 cm stainless steel tube was inserted into the trachea and secured with surgical sutures. The respiratory rate and tidal volume of the mice were measured by a Harvard rodent ventilator. The average respiratory rate was 150 breaths per minute and the tidal volume was adjusted according to the weight (0.01 ml per gram body weight). The mice were then placed in a plethysmograph for pressure-volume measurements.
# [10] = tested on: mice with IR-induced pulmonary fibrosis; assay: Lung histology (H&E, trichrome), hydroxyproline and TGFβ in IR-induced fibrosis; type: in vivo
# Experimental: Briefly, mice treated with GA (40 mg/kg/q.o.d.) for 3 months were sacrificed 7 months after IR exposure at 15 Gy, and lung tissue specimens were stained using hematoxylin and eosin (H&E) stain.
# To assess whether GA reduces abnormal collagen deposition in lungs, lung tissue specimen was stained with collagen-binding trichrome blue dye.
# The reduction of collagen deposition was further analyzed by measuring the levels of hydroxyproline, a key component of collagen.
# IR-induced pneumonitis = assay: GLA tablets in a lung cancer patient receiving 2nd IR treatment; type: in vivo; details: one patient
# Experimental: In collaboration with radiation oncologists at the First Affiliated Hospital of Fujian Medical School in China, GLA tablets (produced by Minophagen Co. in Japan and available in pharmacies in China) were administered to a patient who received their 2nd IR treatment for lung cancer. […] To control the progression of pneumonitis, they received dexamethasone treatment. Due to tumor re-growth 9 months after their 1st IR treatment, they received a 2nd IR treatment with warnings that IR may worsen pneumonitis.
# In order to mitigate IR-induced lung injury, GLA was administered at a does of 150 mg per day (equivalent to GA about 85 mg per day) starting from the date of 2nd treatment for 3 months. The result was unexpectedly surprising.
compound,measurement,setting,value
"NCCCNCCSP(=O)(O)O [amifostine, reference compound]","levels of inflammatory mediators (IL1a, TNFa, PF4, VCAM-1) in lung homogenates",[1],extent of inhibition by GA was comparable
same,plasma exudation and inflammatory cell infiltration into the interstitial space,[2],produced similar treatment effects
"Cc1ccc(-c2cc(C(F)(F)F)nn2-c2ccc(S(N)(=O)=O)cc2)cc1 [celebrex, reference compound]","levels of inflammatory mediators (IL1a, TNFa, PF4, VCAM-1) in lung homogenates",[1],extent of inhibition by GA was comparable
same,plasma exudation and inflammatory cell infiltration into the interstitial space,[2],produced similar treatment effects
same,lung density (abnormal increase),[3],reduction in lung density by GA is more potent that of celebrex
same,body weight,"[4]; 7.5 months post IR 15 Gy, vehicle-treated mice lost 6-7 g",less severe loss of BW
"C[C@@H]1C[C@H]2[C@@H]3CCC4=CC(=O)C=C[C@]4(C)[C@@]3(F)[C@@H](O)C[C@]2(C)[C@@]1(O)C(=O)CO [dexamethasone, reference compound]",plasma growth hormone (GH) level,[5],increased
same,reduction in plasma ACTH levels,[5],10-50 fold
same,course of pulmonary fibrosis and survival,pulmonary fibrosis,"may result in worsening of pulmonary fibrosis, leading to lung failure or even earlier death"
glycyrrhetinic acid [GA],"levels of inflammatory mediators (IL1a, TNFa, PF4, VCAM-1) in lung homogenates",[1],effectively reduced levels of IMs; also recorded: inhibition effects
same,plasma exudation and inflammatory cell infiltration into the interstitial space,[2],potently suppressed; also recorded: reduces inflammatory cell infiltration and plasma exudation
same,plasma levels of IL1a,SP-D and IL1a,effectively reduced; also recorded: reduces plasma levels of SP-D and ILa
same,plasma levels of SP-D,SP-D and IL1a,effectively reduced; also recorded: reduces plasma levels of SP-D
same,infiltration of neutrophils into the interstitial fluid (lung tissue),[6]; 17 days after IR 15 Gy,suppression of infiltration of neutrophils; also recorded: mitigates the sub-acute phase of IR-induced pneumonitis
same,myeloperoxidase (MPO) activity in BALF,"[6]; 17 days after IR 15 Gy, P<0.05",reduces
same,neutrophils infiltrated into bronchoalveolar lavage fluid,"[6]; 17 days after IR 15 Gy, P<0.05",reduced; also recorded: reduces the number of neutrophils
same,levels of lymphotactin and p-selectin,"[6]; 17 days after IR exposure, P<0.05",reduced; also recorded: reduces the levels of inflammatory mediators
same,"levels of IL1a, TNFa, lymphotactin and p-selectin",[7],potently reduced; also recorded: inhibits inflammatory responses
same,respiratory rate,[8]; 5 months after IR 18 Gy,reduction of respiratory rate
same,respiratory rate,"[8]; 7 months after IR 15 Gy, GA 30-40 mg/kg q.o.d. or twice/week for 3 months, P<0.05",effectively reduced; also recorded: reduction of respiratory rate
same,Mean Density (lung density),"[3]; 1 year post IR exposure at 18 Gy, normal control −454, IR without treatment −364",−458 HU
same,lung density (abnormal increase),[3],significantly reduced; also recorded: reduces lung density
same,lung compliance,[9],"potently, and mostly effectively, enhanced"
same,lung morphology (H&E stain),"[10]; GA 40 mg/kg/q.o.d. for 3 months, 7 months after IR 15 Gy",near-normal morphology; also recorded: mitigates IR-induced pulmonary fibrosis
same,collagen deposition (trichrome blue dye),[10]; IR-exposed mice,reduces collagen deposition; also recorded: mitigates IR-induced lung fibrosis
same,level of TGFβ,[10]; IR-exposed mice,reduced
same,hydroxyproline levels in the lungs,"[10]; vs IR + vehicle control, P<0.05",reduced; also recorded: reduces collagen deposition
same,death during treatment,[4]; long-term GA treatment,No mouse died
same,"side effects (activity, fur morphology, body weight)",[4]; long-term use,little side effects
same,plasma growth hormone (GH) level,[5],increased
same,plasma ACTH levels,[5]; 40 mg/kg,rapidly returned to normal
glycyrrhizic acid [GLA],symptoms of pneumonitis or fibrosis,IR-induced pneumonitis; 150 mg per day for 3 months from 2nd IR treatment,did not exhibit any symptom of pneumonitis or fibrosis; also recorded: mitigates pneumonitis
same,lung density (CT),IR-induced pneumonitis; CT of 1st vs 2nd IR treatment,significantly reduced
